Drawing on US12331040B2 (Karyopharm Therapeutics Inc., priority 2013, dated 2025), this text covers IC50 for 21 compounds.

Common to all, as to assay: MTT cell proliferation assay
Common to all, as to type: cell-based
(In general: Tetrazolium assays rely on reduction of a dye to a coloured formazan, in cell work by metabolically active cells.)

Test [1] concerns 3T3 cells. The following applies: Mus musculus, NIH3T3, approximately 64-72 hours incubation. An outline of the steps: (§1)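 5,000-10,000 cells/well, overnight attach; 8 conc., 1 nM–30 μM; MTT ~4 h; formazan solubilized, OD 490 nm; % inhibition = (1−(ODo/OD))×100 vs neg. control; mostly duplicate, mean±SE.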
The subject of test [2] is MS751 cells. The note with it: Homo sapiens, MS751, MS751 cells, approximately 64-72 hours incubation. Summed up: as §1
Test [3] relates to Z138 cells. The following applies: Homo sapiens, Z-138, Z138 cells, approximately 64-72 hours incubation. Summed up:
as §1

Where [4] appears, read: read-out: MTT Assay IC50, MS-751.
The mark [5] stands for this setting: read-out: MTT Assay IC50, Z-138.
[6] abbreviates: read-out: MTT Assay IC50 MS-751.

pIC50: −log10 of the molar value. Read-outs that look alike come from different tables or passages of the source.

With `COc1ccc(Cl)cc1-c1cc(-c2ccc(C(=O)N3CCC(F)(F)CC3)cc2)cc2cc(CNC(=O)/C=C/c3ccc(N)nc3)oc12` [Compound 730, (E)-3-(6-aminopyridin-3-yl)-N-((7-(5-chloro-2-methoxyphenyl)-5-(4-(4,4-difluoropiperidine-1-carbonyl)phenyl)benzofuran-2-yl)methyl)acrylamide], the pIC50 is more than 7.00 in test [1] (read-out: MTT Assay IC50, 3T3); more than 7.00 in test [2] (setting [4]); more than 7.00 in test [3] (setting [5]).
`Nc1ccc(/C=C/C(=O)NCc2cc3cc(-c4ccc(C(=O)N5CCC(O)(C(F)(F)F)CC5)cc4)cc(C(F)(F)F)c3o2)cn1` [Compound 609, (E)-3-(6-aminopyridin-3-yl)-N-((5-(4-(4-hydroxy-4-(trifluoromethyl)piperidine-1-carbonyl)phenyl)-7-(trifluoromethyl)benzofuran-2-yl)methyl)acrylamide]: the pIC50 in test [1] (read-out: MTT Assay IC50 3T3) was less than 5.00; in test [2] (setting [6]), 5.30 to 7.00; in test [3] (read-out: MTT Assay IC50 Z-138) it was 5.30 to 7.00.
On to `Nc1ccc(/C=C/C(=O)NCc2cc3cc(-c4ccc(C(=O)N5CCC(F)(F)CC5)cc4)cc(-c4cc(Cl)cc(Cl)c4)c3o2)cn1` [Compound 700, (E)-3-(6-aminopyridin-3-yl)-N-((7-(3,5-dichlorophenyl)-5-(4-(4,4-difluoropiperidine-1-carbonyl)phenyl)benzofuran-2-yl)methyl)acrylamide], for which the pIC50 in test [1] (read-out: MTT Assay IC50, 3T3) is 5.30 to 7.00; in test [2] (setting [4]) it was more than 7.00; in test [3] (setting [5]) it was more than 7.00.
As for `Nc1ccc(/C=C/C(=O)NCc2cc3cc(-c4ccc(C(=O)c5ccc(F)cc5)cn4)cc(-c4ccc(F)cc4)c3o2)cn1` [Compound 703, (E)-3-(6-aminopyridin-3-yl)-N-((5-(5-(4-fluorobenzoyl)pyridin-2-yl)-7-(4-fluorophenyl)benzofuran-2-yl)methyl)acrylamide], the pIC50 in test [1] (read-out: MTT Assay IC50, 3T3) is 5.00 to 5.30; in test [2] (setting [4]) it was 5.30 to 7.00; in test [3] (setting [5]) it was more than 7.00.
For `Nc1ccc(/C=C/C(=O)NCc2cc3cc(-c4ccc(C(=O)N5CC(O)(C(F)(F)F)C5)cn4)cc(C(F)(F)F)c3o2)cn1` [Compound 747, (E)-3-(6-aminopyridin-3-yl)-N-((5-(5-(3-hydroxy-3-(trifluoromethyl)azetidine-1-carbonyl)pyridin-2-yl)-7-(trifluoromethyl)benzofuran-2-yl)methyl)acrylamide], the pIC50 was less than 5.00 in test [1] (read-out: MTT Assay IC50, 3T3); 5.30 to 7.00 in test [2] (setting [4]); 5.30 to 7.00 in test [3] (setting [5]).
In the case of `Cc1noc(C)c1-c1cc(-c2ccc(F)cc2)c2oc(CNC(=O)/C=C/c3ccc(N)nc3)cc2c1` [Compound 694, (E)-3-(6-aminopyridin-3-yl)-N-((5-(3,5-dimethylisoxazol-4-yl)-7-(4-fluorophenyl)benzofuran-2-yl)methyl)acrylamide], the negative-log IC50 (pIC50) in test [1] (read-out: MTT Assay IC50, 3T3) is less than 5.00; in test [2] (setting [4]), 5.30 to 7.00; in test [3] (setting [5]) it was more than 7.00.
With `NC(=O)c1ccc(-c2cc(Cl)c3oc(CNC(=O)/C=C/c4ccc(N)nc4)cc3c2)cc1` [Compound 506, (E)-4-(2-((3-(6-aminopyridin-3-yl)acrylamido)methyl)-7-chlorobenzofuran-5-yl)benzamide], the negative-log IC50 (pIC50) in test [1] (read-out: MTT Assay IC50 3T3) is less than 5.00; in test [2] (setting [6]), 5.00 to 5.30; in test [3] (read-out: MTT Assay IC50 Z-138), 5.30 to 7.00.
With `Nc1ccc(/C=C/C(=O)NCc2cc3cc(-c4ccc(C(=O)N5CCC(Cl)CC5)cn4)cc(C(F)(F)F)c3o2)cn1` [Compound 614, (E)-3-(6-aminopyridin-3-yl)-N-((5-(5-(4-chloropiperidine-1-carbonyl)pyridin-2-yl)-7-(trifluoromethyl)benzofuran-2-yl)methyl)acrylamide], the pIC50 was less than 5.00 in test [1] (read-out: MTT Assay IC50 3T3), 5.30 to 7.00 in test [2] (setting [6]) and 5.30 to 7.00 in test [3] (read-out: MTT Assay IC50 Z-138).
On to `CN(C)c1ccc(-c2cc(Cl)c3oc(CNC(=O)/C=C/c4ccc(N)nc4)cc3c2)nc1` [Compound 646, (E)-3-(6-aminopyridin-3-yl)-N-((7-chloro-5-(5-(dimethylamino)pyridin-2-yl)benzofuran-2-yl)methyl)acrylamide], for which the pIC50 in test [1] (read-out: MTT Assay IC50 3T3), in test [2] (setting [6]) and in test [3] (read-out: MTT Assay IC50 Z-138) was less than 5.00 each time.
Regarding `CCS(=O)(=O)c1ccc(-c2cc(-c3ccc(F)cc3)c3oc(CNC(=O)/C=C/c4ccc(N)nc4)cc3c2)cc1` [Compound 709, (E)-3-(6-aminopyridin-3-yl)-N-((5-(4-(ethylsulfonyl)phenyl)-7-(4-fluorophenyl)benzofuran-2-yl)methyl)acrylamide], the pIC50 in test [1] (read-out: MTT Assay IC50, 3T3) was less than 5.00; in test [2] (setting [4]), more than 7.00; in test [3] (setting [5]) it was more than 7.00.
Regarding `COc1cc(-c2ccc(C(=O)N3CCOCC3)cc2)cc2cc(CNC(=O)/C=C/c3ccc(N)nc3)oc12` [Compound 592, (E)-3-(6-aminopyridin-3-yl)-N-((7-methoxy-5-(4-(morpholine-4-carbonyl)phenyl)benzofuran-2-yl)methyl)acrylamide], the pIC50 in test [1] (read-out: MTT Assay IC50 3T3) is less than 5.00; in test [2] (setting [6]), 5.30 to 7.00; in test [3] (read-out: MTT Assay IC50 Z-138), more than 7.00.
As for `O=C(/C=C/c1cccnc1)NCc1cc2cc(-c3ccc(C(=O)N4CCC(F)(F)CC4)cn3)cc(C(F)(F)F)c2o1` [Compound 671, (E)-N-((5-(5-(4,4-difluoropiperidine-1-carbonyl)pyridin-2-yl)-7-(trifluoromethyl)benzofuran-2-yl)methyl)-3-(pyridin-3-yl)acrylamide], the pIC50 is 5.30 to 7.00 in test [1] (read-out: MTT Assay IC50, 3T3); 5.30 to 7.00 in test [2] (setting [4]); 5.30 to 7.00 in test [3] (setting [5]).
On to `Nc1ccc(/C=C/C(=O)NCc2cc3cc(-c4ncc(C(=O)N5CCC(F)(F)CC5)cn4)cc(C(F)(F)F)c3o2)cn1` [Compound 652, (E)-3-(6-aminopyridin-3-yl)-N-((5-(5-(4,4-difluoropiperidine-1-carbonyl)pyrimidin-2-yl)-7-(trifluoromethyl)benzofuran-2-yl)methyl)acrylamide], for which the pIC50 in test [1] (read-out: MTT Assay IC50 3T3) was less than 5.00; in test [2] (setting [6]) it was 5.30 to 7.00; in test [3] (read-out: MTT Assay IC50 Z-138), 5.30 to 7.00.
On to `Nc1ccc(/C=C/C(=O)NCc2cc3cc(-c4ccc(C(=O)N5CCC(O)(C(F)(F)F)CC5)cn4)cc(C(F)(F)F)c3o2)cn1` [Compound 616, (E)-3-(6-aminopyridin-3-yl)-N-((5-(5-(4-hydroxy-4-(trifluoromethyl)piperidine-1-carbonyl)pyridin-2-yl)-7-(trifluoromethyl)benzofuran-2-yl)methyl)acrylamide], for which the pIC50 is less than 5.00 in test [1] (read-out: MTT Assay IC50 3T3), more than 7.00 in test [2] (setting [6]) and more than 7.00 in test [3] (read-out: MTT Assay IC50 Z-138).
As for `Nc1ccc(/C=C/C(=O)NCc2cc3cc(-c4ccc(C(=O)N5CCOCC5)c(F)c4F)cc(Cl)c3o2)cn1` [Compound 548, (E)-3-(6-aminopyridin-3-yl)-N-((7-chloro-5-(2,3-difluoro-4-(morpholine-4-carbonyl)phenyl)benzofuran-2-yl)methyl)acrylamide], the figures for the pIC50 in test [1] (read-out: MTT Assay IC50 3T3), in test [2] (setting [6]) and in test [3] (read-out: MTT Assay IC50 Z-138) were less than 5.00, 5.30 to 7.00 and 5.30 to 7.00, respectively.
In the case of `O=C(/C=C/c1cccnn1)NCc1cc2cc(-c3ccc(C(=O)N4CCOCC4)cc3)cc(Cl)c2o1` [Compound 540, (E)-N-((7-chloro-5-(4-(morpholine-4-carbonyl)phenyl)benzofuran-2-yl)methyl)-3-(pyridazin-3-yl)acrylamide], the pIC50 in test [1] (read-out: MTT Assay IC50 3T3), in test [2] (setting [6]) and in test [3] (read-out: MTT Assay IC50 Z-138) was 5.00 to 5.30 each time.
On to `Nc1ccc(/C=C/C(=O)NCc2cc3cc(-c4ccc(C(=O)C(=O)N5CCOCC5)cc4)cc(Cl)c3o2)cn1` [Compound 545, (E)-3-(6-Aminopyridin-3-yl)-N-((7-chloro-5-(4-(2-morpholino-2-oxoacetyl)phenyl)benzofuran-2-yl)methyl)acrylamide], for which the pIC50 is 5.00 to 5.30 in test [1] (read-out: MTT Assay IC50 3T3), 5.30 to 7.00 in test [2] (setting [6]) and 5.30 to 7.00 in test [3] (read-out: MTT Assay IC50 Z-138).
In the case of `Nc1ccc(/C=C/C(=O)NCc2cc3cc(-c4ccc(C(=O)N5CCC(F)(F)CC5)s4)cc(C(F)(F)F)c3o2)cn1` [Compound 685, (E)-3-(6-aminopyridin-3-yl)-N-((5-(5-(4,4-difluoropiperidine-1-carbonyl)thiophen-2-yl)-7-(trifluoromethyl)benzofuran-2-yl)methyl)acrylamide], the pIC50 in test [1] (read-out: MTT Assay IC50, 3T3) was less than 5.00; in test [2] (setting [4]) it was 5.30 to 7.00; in test [3] (setting [5]), 5.30 to 7.00.
In the case of `Nc1ccc(/C=C/C(=O)NCc2cc3cc(-c4ccc(C(=O)N5CCC(F)(F)CC5)cc4)cc(-c4cccc(Cl)c4)c3o2)cn1` [Compound 741, (E)-3-(6-aminopyridin-3-yl)-N-((7-(3-chlorophenyl)-5-(4-(4,4-difluoropiperidine-1-carbonyl)phenyl)benzofuran-2-yl)methyl)acrylamide], the negative logarithm of the IC50 (pIC50) in test [1] (read-out: MTT Assay IC50, 3T3) was 5.30 to 7.00; in test [2] (setting [4]) it was more than 7.00; in test [3] (setting [5]), more than 7.00.
`Nc1ccc(/C=C/C(=O)NCc2cc3cc(-c4ccc(C(=O)N5CCOCC5)c(F)c4)cc(Cl)c3o2)cn1` [Compound 549, (E)-3-(6-aminopyridin-3-yl)-N-((7-chloro-5-(3-fluoro-4-(morpholine-4-carbonyl)phenyl)benzofuran-2-yl)methyl)acrylamide]: the values for the pIC50 in test [1] (read-out: MTT Assay IC50 3T3), in test [2] (setting [6]) and in test [3] (read-out: MTT Assay IC50 Z-138) were less than 5.00, 5.30 to 7.00 and 5.30 to 7.00, respectively.
On to `CC(=O)c1ccc(-c2ccc3oc(CNC(=O)/C=C/c4ccc(N)nc4)cc3c2)s1` [Compound 503, (E)-N-((5-(5-acetylthiophen-2-yl)benzofuran-2-yl)methyl)-3-(6-aminopyridin-3-yl)acrylamide], for which the negative-log IC50 (pIC50) in test [1] (read-out: MTT Assay IC50 3T3) is less than 5.00; in test [2] (setting [6]) it was 5.30 to 7.00; in test [3] (read-out: MTT Assay IC50 Z-138) it was less than 5.00.

One may read the pIC50 as the negative decadic logarithm of the IC50, by convention in mol/L.
